Test results published in US20230085307A1, “PYRIDAZINONE COMPOUND AND HERBICIDE” (NISSAN CHEMICAL CORPORATION, priority 2019, published 2023).

Assays:
oval-leafed pondweed [1] = test: Test Example 1: herbicidal activity, application before weed generation under submerged conditions (Table 16, symbol C); type: in vivo, oval-leafed pondweed (Monochoria vaginalis); conditions: 320 g/ha applied herbicide
In short: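 Submerged Wagner pots (alluvial soil, 4 cm water) sown with weed seeds and planted with 2.5-leaf rice seedlings; emulsifiable concentrate diluted in water applied to water surface on sowing day. Held in greenhouse at 25-30 °C; injury scored 0-5 by herbicidal rate after three weeks.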

late watergrass = test: Test Example 2: herbicidal activity, application during weed generation under submerged conditions (Table 17, symbol A); type: in vivo, late watergrass (Echinochloa oryzicola); conditions: AAH 320 g/ha; application during weed generation, submerged conditions
In short: (§1)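 3-wk visual-criteria score after one water-surface dose. Emulsion formulation, water-diluted to set rate; applied at 1–2 leaf stage; alluvial soil, 4 cm standing water; seeds co-sown; greenhouse 25–30° C.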

oval-leafed pondweed [2] = test: Test Example 2: herbicidal activity, application during weed generation under submerged conditions (Table 17, symbol C); type: in vivo, oval-leafed pondweed (Monochoria vaginalis); conditions: AAH 320 g/ha; application during weed generation, submerged conditions
In short: as §1

rice flat sedge = test: Test Example 3: herbicidal effect by foliage application, Wagner pot (Table 18, symbol E); type: in vivo, rice flat sedge (Cyperus iria); conditions: for herbicidal effect on E (rice flat sedge), rating 0-5: 320 g/ha; for herbicidal effect on E: rice flat sedge: amount of applied herbicide 320 g/ha
In short: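 Plants were sown in alluvial soil held under 0.1–0.5 cm standing water and grown 14 days in a greenhouse at 25–30 °C. An emulsifiable formulation, water-diluted to the set dose, was then sprayed onto the foliage, and effects were scored three weeks later using previously defined criteria.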

green foxtail [3] = test: Test Example 4: herbicidal effect by soil treatment (Table 19, symbol G); type: in vivo, green foxtail (Setaria viridis)
In short: (§2)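 Scoring uses the grading scale of an earlier test, three weeks post-application. Treatment consists of spraying a diluted emulsion formulation across the surface of sterilized diluvial soil in which seeds are buried near 1.5 cm deep; boxes are kept in a greenhouse between 25° C. and 30° C.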

wild oat = test: Test Example 4: herbicidal effect by soil treatment (Table 19, symbol I); type: in vivo, wild oat (Avena fatua)
In short: as §2

blackgrass [4] = test: Test Example 4: herbicidal effect by soil treatment (Table 19, symbol J); type: in vivo, blackgrass (Alopecurus myosuroides)
In short: as §2

Italian ryegrass = test: Test Example 4: herbicidal effect by soil treatment (Table 19, symbol K); type: in vivo, Italian ryegrass (Lolium multiflorum)
In short: as §2

redroot pigweed [5] = test: Test Example 4: herbicidal effect by soil treatment (Table 19, symbol N); type: in vivo, redroot pigweed (Amaranthus retroflexus)
In short: as §2

green foxtail [6] = test: Test Example 5: herbicidal effect by foliage application, plastic box (Table 20, symbol G); type: in vivo, green foxtail (Setaria viridis); conditions: foliage application; for G: green foxtail, herbicidal effect (criteria 0-5): evaluated three weeks after application
In short: (§3)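 Post-emergence foliar test in sterilized diluvial soil. Compound applied as water-diluted emulsion at a predetermined rate to 14-day-old plants; evaluation at three weeks.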

barnyard grass = test: Test Example 5: herbicidal effect by foliage application, plastic box (Table 20, symbol H); type: in vivo, barnyard grass (Echinochloa crus-galli); conditions: foliage application; for H: barnyard grass, herbicidal effect (criteria 0-5): evaluated three weeks after application
In short: as §3

blackgrass [7] = test: Test Example 5: herbicidal effect by foliage application, plastic box (Table 20, symbol J); type: in vivo, blackgrass (Alopecurus myosuroides); conditions: foliage application, AAH 320 g/ha; for J: blackgrass, herbicidal effect (criteria 0-5): evaluated three weeks after application
In short: as §3

redroot pigweed [8] = test: Test Example 5: herbicidal effect by foliage application, plastic box (Table 20, symbol N); type: in vivo, redroot pigweed (Amaranthus retroflexus); conditions: foliage application, AAH 320 g/ha; for N: redroot pigweed, herbicidal effect (criteria 0-5): evaluated three weeks after application
In short: as §3

chickweed [9] = test: Test Example 5: herbicidal effect by foliage application, plastic box (Table 20, symbol P); type: in vivo, common chickweed (Stellaria media); conditions: foliage application, AAH 320 g/ha; for P: chickweed, herbicidal effect (criteria 0-5): evaluated three weeks after application
In short: as §3

chickweed [10] = test: Test Example 4: herbicidal effect by soil treatment (Table 19, symbol P); type: in vivo, common chickweed (Stellaria media); conditions: for herbicidal effect on P: chickweed: amount of applied herbicide 320 g/ha
In short: as §2

persian speedwell = test: Test Example 4: herbicidal effect by soil treatment (Table 19, symbol R); type: in vivo, Persian speedwell (Veronica persica); conditions: amount of applied herbicide 320 g/ha
In short: as §2

[11] = amount of applied herbicide 320 g/ha
[12] = AAH 320 g/ha, three weeks after application
[13] = 320 g/ha, 3 weeks after application

| Structure (SMILES) | Herbicidal effect on C: oval-leafed pondweed (grade 0-5) (oval-leafed pondweed [1]) | herbicidal effect rating, A: late watergrass (late watergrass) | herbicidal effect rating, C: oval-leafed pondweed (oval-leafed pondweed [2]) | herbicidal effect on E (rice flat sedge), rating 0-5 (rice flat sedge) | herbicidal effect on E: rice flat sedge (rice flat sedge) | herbicidal effect on G: green foxtail (green foxtail [3]; [11]) | herbicidal effect on I: wild oat (wild oat; [11]) | herbicidal effect on K: Italian ryegrass (Italian ryegrass; [11]) | herbicidal effect on N: redroot pigweed (redroot pigweed [5]; [11]) | herbicidal effect on P: chickweed (chickweed [10]) | herbicidal effect on R: persian speedwell (persian speedwell) | G: green foxtail, herbicidal effect (criteria 0-5) (green foxtail [6]; AAH 320 g/ha) | H: barnyard grass, herbicidal effect (criteria 0-5) (barnyard grass; AAH 320 g/ha) | J: blackgrass, herbicidal effect (criteria 0-5) (blackgrass [7]) | N: redroot pigweed, herbicidal effect (criteria 0-5) (redroot pigweed [8]) | P: chickweed, herbicidal effect (criteria 0-5) (chickweed [9]) | also measured |
| --- | --- | --- | --- | --- | --- | --- | --- | --- | --- | --- | --- | --- | --- | --- | --- | --- | --- |
| Cc1nn(C)c(=O)c(-c2c(-c3ccc4c(c3)OCCO4)sc3ccccc23)c1O [1-089] | 4 (Herbicidal rate of 70% or more and less than 90%) | 5 (Herbicidal rate of 90% or more (almost completely withered)) | 1 (Herbicidal rate of 5% or more and less than 20%) | 5 (Herbicidal rate of 90% or more (almost completely withered)) | – | – | – | – | – | – | – | – | – | – | – | – | herbicidal effect rating, G: green foxtail (green foxtail [3]; [11]): 5 (Herbicidal rate of 90% or more (almost completely withered)); herbicidal effect rating, I: wild oat (wild oat; [11]): 0 (Herbicidal rate of 5% or less (almost no effect)); herbicidal effect rating, J: blackgrass (blackgrass [4]; [11]): 0 (Herbicidal rate of 5% or less (almost no effect)); herbicidal effect rating, K: Italian ryegrass (Italian ryegrass; [11]): 0 (Herbicidal rate of 5% or less (almost no effect)); herbicidal effect rating, N: redroot pigweed (redroot pigweed [5]; [11]): 4 (Herbicidal rate of 70% or more and less than 90%); G: green foxtail, herbicidal effect (green foxtail [6]; [12]): 5 (Herbicidal rate of 90% or more (almost completely withered)); H: barnyard grass, herbicidal effect (barnyard grass; [12]): 5 (Herbicidal rate of 90% or more (almost completely withered)); J: blackgrass, herbicidal effect (blackgrass [7]; three weeks after application): 0 (Herbicidal rate of 5% or less (almost no effect)); N: redroot pigweed, herbicidal effect (redroot pigweed [8]; three weeks after application): 1 (Herbicidal rate of 5% or more and less than 20%); P: chickweed, herbicidal effect (chickweed [9]; three weeks after application): 5 (Herbicidal rate of 90% or more (almost completely withered)) |
| Cc1nn(C)c(=O)c(-c2c(-c3ccccc3OC(F)(F)F)sc3ccc(F)cc23)c1O [2-043] | 1 (Herbicidal rate of 5% or more and less than 20%) | 0 (Herbicidal rate of 5% or less (almost no effect)) | 0 (Herbicidal rate of 5% or less (almost no effect)) | 5 (Herbicidal rate of 90% or more (almost completely withered)) | – | – | – | – | – | – | – | – | – | – | – | – | herbicidal effect rating, G: green foxtail (green foxtail [3]; 320 g/ha): 5 (Herbicidal rate of 90% or more (almost completely withered)); herbicidal effect rating, I: wild oat (wild oat; 320 g/ha): 0 (Herbicidal rate of 5% or less (almost no effect)); herbicidal effect rating, J: blackgrass (blackgrass [4]; 320 g/ha): 0 (Herbicidal rate of 5% or less (almost no effect)); herbicidal effect rating, K: Italian ryegrass (Italian ryegrass; 320 g/ha): 0 (Herbicidal rate of 5% or less (almost no effect)); herbicidal effect rating, N: redroot pigweed (redroot pigweed [5]; 320 g/ha): 5 (Herbicidal rate of 90% or more (almost completely withered)); herbicidal effect rating, P: chickweed (chickweed [10]; 320 g/ha): 1 (Herbicidal rate of 5% or more and less than 20%); effect on green foxtail (G) (green foxtail [6]; [13]): 5 (Herbicidal rate of 90% or more (almost completely withered)); effect on barnyard grass (H) (barnyard grass; [13]): 4 (Herbicidal rate of 70% or more and less than 90%) |
| C=C(C)C(=O)Oc1c(C)nn(C)c(=O)c1-c1c(-c2ccc(OC(F)F)cc2)sc2ccc(F)cc12 [2-281] | 4 (Herbicidal rate of 70% or more and less than 90%) | 5 (Herbicidal rate of 90% or more (almost completely withered)) | 5 (Herbicidal rate of 90% or more (almost completely withered)) | – | 5 (Herbicidal rate of 90% or more (almost completely withered)) | 4 (Herbicidal rate of 70% or more and less than 90%) | 0 (Herbicidal rate of 5% or less (almost no effect)) | 5 (Herbicidal rate of 90% or more (almost completely withered)) | 5 (Herbicidal rate of 90% or more (almost completely withered)) | 4 (Herbicidal rate of 70% or more and less than 90%) | 5 (Herbicidal rate of 90% or more (almost completely withered)) | 4 (Herbicidal rate of 70% or more and less than 90%) | 5 (Herbicidal rate of 90% or more (almost completely withered)) | 4 (Herbicidal rate of 70% or more and less than 90%) | 5 (Herbicidal rate of 90% or more (almost completely withered)) | 5 (Herbicidal rate of 90% or more (almost completely withered)) | – |
| C=CCOC(=O)Oc1c(C)nn(C)c(=O)c1-c1c(-c2ccc(OC(F)F)cc2)sc2ccc(F)cc12 [2-294] | 4 (Herbicidal rate of 70% or more and less than 90%) | 3 (Herbicidal rate of 40% or more and less than 70%) | 3 (Herbicidal rate of 40% or more and less than 70%) | – | 5 (Herbicidal rate of 90% or more (almost completely withered)) | 5 (Herbicidal rate of 90% or more (almost completely withered)) | 1 (Herbicidal rate of 5% or more and less than 20%) | 5 (Herbicidal rate of 90% or more (almost completely withered)) | 5 (Herbicidal rate of 90% or more (almost completely withered)) | 5 (Herbicidal rate of 90% or more (almost completely withered)) | 5 (Herbicidal rate of 90% or more (almost completely withered)) | 5 (Herbicidal rate of 90% or more (almost completely withered)) | 5 (Herbicidal rate of 90% or more (almost completely withered)) | 4 (Herbicidal rate of 70% or more and less than 90%) | 5 (Herbicidal rate of 90% or more (almost completely withered)) | 5 (Herbicidal rate of 90% or more (almost completely withered)) | – |
| C=CCSCc1ccc(-c2sc3ccc(F)cc3c2-c2c(O)c(C)nn(C)c2=O)cc1 [2-323] | 0 (Herbicidal rate of 5% or less (almost no effect)) | 3 (Herbicidal rate of 40% or more and less than 70%) | 0 (Herbicidal rate of 5% or less (almost no effect)) | – | 3 (Herbicidal rate of 40% or more and less than 70%) | 3 (Herbicidal rate of 40% or more and less than 70%) | 0 (Herbicidal rate of 5% or less (almost no effect)) | 4 (Herbicidal rate of 70% or more and less than 90%) | 5 (Herbicidal rate of 90% or more (almost completely withered)) | 1 (Herbicidal rate of 5% or more and less than 20%) | – | 5 (Herbicidal rate of 90% or more (almost completely withered)) | 4 (Herbicidal rate of 70% or more and less than 90%) | 4 (Herbicidal rate of 70% or more and less than 90%) | 5 (Herbicidal rate of 90% or more (almost completely withered)) | 5 (Herbicidal rate of 90% or more (almost completely withered)) | herbicidal effect on J: blackgrass (blackgrass [4]; [11]): 0 (Herbicidal rate of 5% or less (almost no effect)) |
